Assay results from article PMC9030254, “Target Hopping from Protein Kinases to PXR: Identification of Small-Molecule Protein Kinase Inhibitors as Selective Modulators of Pregnane X Receptor from TüKIC Library” (Cells, 2022).

What was measured:
Type in all cases: cell-based
[1] = biological target: T1, PXR interaction with coactivator SRC1 (Homo sapiens, UniProt O75469); assay: Mammalian two-hybrid coactivator interaction assay; settings: for induction of interaction of PXR with coactivator SRC1: HepG2, 10 µM, alone; for effect on rifampicin-dependent recruitment of SRC1 by PXR: HepG2, 10 µM compound + 10 µM rifampicin
T1 construct: VP16-PXR LBD(108–434); expressed in transfected cells; host or cells: HepG2
T1 sequence (O75469 108-434): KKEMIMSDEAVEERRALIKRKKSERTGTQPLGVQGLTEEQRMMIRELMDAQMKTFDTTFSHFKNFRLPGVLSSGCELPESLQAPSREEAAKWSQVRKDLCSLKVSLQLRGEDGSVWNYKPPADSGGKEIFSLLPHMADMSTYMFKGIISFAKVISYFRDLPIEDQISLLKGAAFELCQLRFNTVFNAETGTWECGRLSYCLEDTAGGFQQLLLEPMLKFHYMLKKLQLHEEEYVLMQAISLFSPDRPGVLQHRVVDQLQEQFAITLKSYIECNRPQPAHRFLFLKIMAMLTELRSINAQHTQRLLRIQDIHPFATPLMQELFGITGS
Experimental: (§1) In mammalian two-hybrid corepressor/coactivator interaction assays, per well 0.24 µg pGL4-G5, 0.01 µg pGL4.75[hRluc/CMV], 0.03 µg expression plasmid encoding VP16-AD/PXR LBD fusion, and 0.03 µg expression plasmids encoding GAL4-DBD/SRC1-RID or GAL4-DBD/SMRT-RID fusions, respectively, were used. For the SMRT corepressor interaction assay, additionally 0.015 µg of RXRα expression plasmid was included.

PXR = biological target: T2, PXR (Homo sapiens, UniProt O75469); assay: PXR-dependent CYP3A4 reporter gene assay, antagonist mode (cotreatment with rifampicin); design: expressed in transfected cells; host or cells: H-P cells (HepG2 stably transfected with PXR); settings: for IC50: read-out: IC50, inhibition of rifampicin-induced PXR activation
T2 sequence (O75469 1-434): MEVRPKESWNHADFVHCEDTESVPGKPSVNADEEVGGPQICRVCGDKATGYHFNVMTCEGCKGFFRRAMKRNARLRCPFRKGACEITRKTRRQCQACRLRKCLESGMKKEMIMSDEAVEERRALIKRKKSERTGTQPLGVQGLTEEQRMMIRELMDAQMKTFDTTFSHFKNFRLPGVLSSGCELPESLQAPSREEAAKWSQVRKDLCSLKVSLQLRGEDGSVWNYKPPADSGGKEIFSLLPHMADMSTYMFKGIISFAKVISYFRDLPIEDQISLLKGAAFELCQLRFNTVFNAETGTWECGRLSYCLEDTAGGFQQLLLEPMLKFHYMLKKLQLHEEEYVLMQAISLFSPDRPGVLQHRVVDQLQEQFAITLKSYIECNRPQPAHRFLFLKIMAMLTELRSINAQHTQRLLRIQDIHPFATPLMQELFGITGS
Excerpt: Figure 1 Identification of novel putative PXR ligands from the TüKIC library. (A) Workflow of the in silico screening and structures of the identified candidate ligands. (B) Concentration–response curves of the novel inhibitors for antagonism of PXR activity. (C) Concentration–response curves of the same compounds and 109 for PXR activation. […] Data are expressed as mean ± SD fold induction with respect to the DMSO-treated cells from three independent experiments. IC50 and EC50 values calculated with nonlinear regression using formula with 3 parameters (constraint bottom =1) using GraphPadPrism.
Supplementary Figure S1. Effects of 56 in silico screened TüKIC compounds (A) alone or (B) in combination […]
H-P cells were transiently
Luciferase activities were measured after 24 h treatment. Data is expressed as mean ± SD %. Activation was calculated according to Zhu et al. from three independent experiments with technical triplicates. Fold induction achieved by 10 μM […]
Green and red dashed lines represent the 100% and 50% activation, respectively.
(1 picture or pasted object on this page, not shown here)

[2] = biological target: T3, PXR interaction with corepressor SMRT (Homo sapiens, UniProt O75469); assay: Mammalian two-hybrid corepressor interaction assay; settings: HepG2, 10 µM
T3 construct: VP16-PXR LBD(108–434); expressed in transfected cells; host or cells: HepG2
T3 sequence (O75469 108-434): T1 sequence (O75469 108-434)
T3 sequence (P19793 1-462 partner): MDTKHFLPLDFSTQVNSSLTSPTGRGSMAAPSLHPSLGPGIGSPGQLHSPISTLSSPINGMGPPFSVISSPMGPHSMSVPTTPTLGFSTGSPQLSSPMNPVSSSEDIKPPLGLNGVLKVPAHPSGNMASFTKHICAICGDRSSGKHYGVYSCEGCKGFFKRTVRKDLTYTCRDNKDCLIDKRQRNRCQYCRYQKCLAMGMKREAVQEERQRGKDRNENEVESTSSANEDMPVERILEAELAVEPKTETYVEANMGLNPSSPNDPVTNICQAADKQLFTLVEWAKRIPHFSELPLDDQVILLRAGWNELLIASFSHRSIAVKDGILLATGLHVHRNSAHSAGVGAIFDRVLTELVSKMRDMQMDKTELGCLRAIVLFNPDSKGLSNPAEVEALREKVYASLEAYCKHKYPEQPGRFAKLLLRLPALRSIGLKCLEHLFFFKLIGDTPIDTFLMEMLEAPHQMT
Experimental: as §1

CAR3 = biological target: T4, CAR3 (Homo sapiens, UniProt Q14994, DEL233-236); assay: Nuclear receptor selectivity reporter assay, CAR3; settings: for impairment of ligand-induced activation of CAR3 by CITCO: HepG2, 10 µM compound + 10 µM CITCO
T4 construct: expressed in transfected cells; host or cells: HepG2
T4 sequence (Q14994 with tags, fused parts or gaps isoform Q14994-8 DEL233-236): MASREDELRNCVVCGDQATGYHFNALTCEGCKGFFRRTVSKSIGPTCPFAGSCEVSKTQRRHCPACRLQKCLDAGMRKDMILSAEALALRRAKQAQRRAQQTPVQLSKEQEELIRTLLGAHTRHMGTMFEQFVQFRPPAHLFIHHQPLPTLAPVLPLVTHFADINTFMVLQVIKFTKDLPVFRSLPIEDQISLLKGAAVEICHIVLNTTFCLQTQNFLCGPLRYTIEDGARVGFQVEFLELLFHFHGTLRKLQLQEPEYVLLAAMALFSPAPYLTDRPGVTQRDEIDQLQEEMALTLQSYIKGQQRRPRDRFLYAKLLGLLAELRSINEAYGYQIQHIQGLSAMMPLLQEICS
T4 sequence (P19793 1-462 partner): T3 sequence (P19793 1-462 partner)
Experimental: For testing nuclear receptor selectivity and LBP-filled PXR mutant activation, transient batch transfection was conducted as above, but with HepG2 cells and the following plasmids, with amounts per well of 0.23–0.27 µg pGL4-CYP3A4(-7830Δ7208-364) or pGL3(DR3)3Tk (as reporter for VDR), 0.01 µg pMetLuc2control, and 0.03 µg either CAR1, CAR3, VDR, or PXR(S208W/S247W/C284W) expression plasmids. In addition, 0.03 µg RXRα expression plasmid was added to CAR3 transfections. Metridia luciferase activity was measured from 10 µL of medium supernatant after adding 100 µL Renilla luciferase assay solution.
Figure 6 Selectivity of novel PXR ligands within the NR1I group of nuclear receptors. HepG2 cells were transiently transfected with CYP3A4 reporter and expression plasmids encoding (A) CAR1 or (B) CAR3, or (C) direct repeat (DR3)3 reporter and expression plasmid encoding VDR. Cells were treated with 0.2% DMSO or 10 µM chemicals as indicated. 1α,25(OH)2D3 was used at 1 µM.

| SMILES | induction of interaction of PXR with coactivator SRC1 [1] | inhibition of rifampicin-mediated induction of CYP3A4 reporter activity (PXR; H-P cells, 10 µM compound + 10 µM rifampicin, 24 h) | effect on constitutive interaction of PXR with corepressor SMRT [2] | activation of CAR3, % of the effect of CITCO (CAR3; HepG2, 10 µM) | effect on rifampicin-dependent recruitment of SRC1 by PXR [1] | IC50 (PXR) | activation of CAR3 on their own (CAR3; HepG2, 10 µM) | impairment of ligand-induced activation of CAR3 by CITCO (CAR3) |
| --- | --- | --- | --- | --- | --- | --- | --- | --- |
| O=C(Nc1ccc(F)c(Nc2ccc3c(c2)CCCCC3=O)c1)c1cccc(F)c1 [Compound 109] | interaction with SRC1 was induced | does not inhibit PXR | impaired the constitutive interaction of PXR with the corepressor | 12% | – | – | – | – |
| Cc1ccc(NC(=O)Cc2ccccc2)cc1Nc1ccc2c(c1)CCCCC2=O [Compound 73] | did not induce any interaction of PXR with coactivator SRC1 | – | impaired the constitutive interaction of PXR with the corepressor | – | abrogated the rifampicin-dependent recruitment of SRC1 by PXR | 8.3 µM | Neither CAR3 nor VDR were activated | 46% |
| O=C(Cc1ccccc1)Nc1ccc(F)c(Nc2ccc3c(c2)CCCCC3=O)c1 [Compound 100] | did not induce any interaction of PXR with coactivator SRC1 | – | impaired the constitutive interaction of PXR with the corepressor | – | abrogated the rifampicin-dependent recruitment of SRC1 by PXR | 2.8 µM | Neither CAR3 nor VDR were activated | no respective effects |
